Laboratory results taken from patent publication US20120252894A1, “COMPOUNDS FOR ALLEVIATING PAIN AND STRESS IN FETUS AND NEWBORN” (priority 2011, published 2012).
Where a SMILES comes first, the peptide text is derived from it. Bridges are numbered along the chain shown (N, C = ends). [ ]: non-standard residue; d: D form. Orn = NCCC[C@H](N)C(=O)O; Mpa = O=C(O)CCS

Experiments:
newborn rats = assay: Thermal tail-flick assay (tail immersion, 50° C. water); type: in vivo, rat; conditions: for change in tail withdrawal delay: P0 rats, atosibane 2 μg/kg or SSR126768A 1 μg/kg intraperitoneal; for change in tail-flick delays: P2 rats, oxytocin receptor blockers; for reversal of the effect of oxytocin receptor blockers on tail-flick: newborn rats
Protocol: Pregnant and maternal Wistar rats were housed with a 12-h light-dark-cycle, at 24°±1° C., and food and water ad libitum. The day of birth was considered 0 day old (P0). Experiments on P0 rats (male and female) were performed within two hours after birth.
The pup was held in a box with a hole allowing the tail to protrude from it. The inner surface of the box was covered with an aluminum sheet forming an electrical contact with the rat body. The electrical circuit via the sheet, body, tail and water bath was powered by a 1.5 V battery and its connection and disconnection could be easily detected upon the tail immersion and withdrawal from the water, respectively. Electrical signals were digitized at 1 kHz using a Digidata 1200 and recorded to a computer. The distal tip of the tail was lowered into the water bath (50° C.). Latency to withdrawal was recorded as the “pain” parameter, with a 15-second maximum allowable threshold. After three habituation tests, the latency to withdrawal was determined from the average of three consecutive measurements.
We first tested pain sensitivity in the newborn rats using a thermal tail-flick response. In this test, pain sensitivity is reciprocal to the delay in tail withdrawal from the hot water. […] We studied thermal tail-flick response in two age groups: (i) fresh newborn animals which were examined immediately, within an hour, after birth (P0) and (ii) two day-old rat pups (P2). […] We further studied whether endogenous oxytocin is involved in reduced pain in the newborn rats. To block the action of endogenous oxytocin circulating in the newborn pups we used selective blockers of oxytocin receptors atosibane (2 μg/kg, intraperiotoneal) and SSR126768A (1 μg/kg, intraperiotoneal).

neonatal rats = assay: Vocalization evoked by electrical stimulation of the whisker pad in decerebrated rat pups; type: in vivo
Protocol: Under isoflurane (1.5%) anaesthesia, rat pups were implanted with bipolar electrodes into the whisker pad and decerebrated at the upper pons level via a hole drilled 1 mm posterior to lambda using blunted 36 gouge needle, to avoid blood bleeding the hole was covered by cyanoacrylate after. After 10 min (P0) or one hour (P1-2 pups) of recovery period, the pups were wrapped by cotton and placed on the thermal blanket (38° C.). Whisker pad was stimulated by electrical train pulses (1 ms pulse duration, 5-25 V amplitude, 50 Hz, 1 minute inter-train interval). Vocalization response was recorded by microphone, digitized at 10 kHz using Digidata 1440 interface (Axon Instruments) and analyzed offline using Matlab (MathWorks, Natick, Mass.). To quantify the vocalization response, we calculated scalar integral (□) as following: (i) raw acustogram was converted to scalar acustogram by inverting all negative values to positive values; (ii) scalar acustogram was corrected for the baseline activity level by subtraction of the mean scalar acustogram value calculated during 1 minute before stimulation; (iii) scalar acustogram integral was calculated as cumulative, corrected for the baseline, scalar acustogram during 5 sec after stimulation.
In the experiments in vivo, Oxytocin (Sigma) 50 μM was injected at 0.1 ml/5 g (diluted in saline) IP, 30 min before testing. Bumetanide (Sigma) solution 25 μg/ml was injected IP at the dose of 5 μmol/kg, 30 min before testing. Atosiban (Sigma) (diluted in saline) was injected at 2 μg/kg, IP, 30 min before testing. SSR126768A (gift from Sanofi-Synthelabo) diluted in saline injected at 1 mg/kg IP, 30 min before testing. Sham injections in the control group were performed with equal volumes of saline.
In the second experiment, we studied oxytocin-modulation of the pain responses by measuring vocalization evoked by electrical stimulation of the whisker pad. Animals were decerebrated at caudal midbrain levels to cut the descending oxytocin projections from the VPN to spinal cord and to prevent noxious input to the brain. Electrical stimulation of the whisker pad evoked vocalization in the neonatal rats despite of decerebration. Vocalizing response was composed of several bursts with a dominant frequency in the range from 2.7 to 5 kHz (mean frequency 3.9±0.1 kHz n=24, rat P0-2). To quantify vocalization response, we calculated scalar acusticogram integral. In agreement with the results of the thermal tail-flick assay, oxytocin receptor blocker atosiban (2 μg/kg) increased vocalization response in the fresh newborn P0 rats (to 155±28%, n=8, p=0.0003;). […]

[1] = test system: isolated spinal cord preparations; assay: Primary afferents depolarization (DR-DRPs) in isolated spinal cord; parameters: species or system rat
Protocol: Experiments were performed on lumbar (L) spinal cord preparations isolated from neonatal Wistar rats (P0-P1). All efforts were made to reduce the number of animals used and to minimize animal suffering. The experimental setup was the same as described previously (Taccola and Nistri, 2004). The spinal cord was superfused (5 ml min-1) with Krebs solution of the following composition (in mM): NaCl, 113; KCl, 4.5; MgCl2×7H2O, 1; CaCl2, 2; NaH2PO4, 1; NaHCO3, 25; glucose, 11; gassed with 95% O2-5% CO2; pH 7.4 at room temperature. All agents were bath-applied via the superfusing solution at the concentrations mentioned in the text. Recordings were obtained with glass suction electrodes (containing an Ag—AgCl pellet) filled with Krebs solution. Miniature bipolar suction electrodes were used in order to deliver single or repetitive electrical stimuli to DRs to evoke DR-DR potentials (DR-DRPs) (Kerkut and Bagust, 1995). Stimulus intensity was calculated in terms of threshold (Th), defined as the minimum intensity to elicit a detectable response in the homolateral VR.
Depolarizing action of GABA on the axons of primary afferents underlies primary afferents depolarization (PAD), that is a depolarizing response evoked by dorsal root stimulation in the neighboring dorsal root (Willis, 2006; Rudomin and Schmidt, 1999). Therefore, in the next experiments we have studied the effect of oxytocin on PAD in the in vitro isolated spinal cord preparations obtained from newborn rats.

[2] = test system: trigeminal sensory neurons; assay: Calcium imaging of GABA-evoked intracellular calcium increases; type: cell-based, rat; conditions: oxytocin 1 μM; for GABA-evoked intracellular calcium increases: trigeminal neurons from newborn rats, five hours in vitro
Protocol: Trigeminal sensory neurons were obtained from P0 rats. Animals were anesthetized by CO2 and decapitated. Trigeminal ganglia were excised and enzymatically dissociated in F12 medium containing 0.25 mg/ml trypsin, 1 mg/ml collagenase and 0.2 mg/ml DNAse (Sigma) at 37° C. Cells were plated on poly-1-lysine-coated Petri dishes in F12 medium with 10% fetal calf serum and examined 5 hours after plating. For Ca2+ imaging experiments cells were incubated for 40 min at 20-22° C. in physiological solution containing Fluo3 (AM ester cell-permeable compound; 1 μM; Molecular Probes), followed by a 30 min washout period. Fluorescence emission was detected with a Cell-R imaging system (Olympus, Hamburg, Germany). Images were acquired with 200 ms exposure time and single cell responses were analyzed with the Cell-R software. All drugs were applied via fast perfusion system (RDS-200, BioLogic Science Instruments Grenoble, France). Only cells with two stable control GABA transients were taken into analysis. Intracellular Ca2+ transients were expressed as percent amplitude increase (ΔF/F0, where F0 is the baseline fluorescence level and ΔF is the increment over baseline). Ca2+ transient intensity data was exported and then analyzed off-line using Excel and Origin (version 8.0) software. Significance was analyzed by non-parametric Mann-Witney test.
Because analgesic action of oxytocin in adult rats involves modulation of GABAergic control of the primary nociceptive afferents (Condes-Lara et al., 2009), we studied the effect of oxytocin on GABA responses in sensory trigeminal neurons, which detect noxious stimuli and conduct them to the spinal cord. Experiments were performed in primary cultures of trigeminal neurons dissociated from newborn rats and kept for five hours in vitro. In keeping with previous observations (Wang et al., 1994; Reichling et al., 1994), activation of GABA receptors induced robust transient increases of intracellular calcium in trigeminal neurons indicating depolarizing action of GABA and calcium entry into the cells via voltage-gated calcium channels. […]

TRPV1 receptors = target: T1, TRPV1 receptors (Rattus norvegicus, UniProt O35433); assay: Calcium imaging of capsaicin-evoked responses in DRG neurons; type: cell-based
T1 construct: endogenous in cells; host or cells: acutely dissociated primary sensory neurons (trigeminal ganglia per methods; called DRG neurons in results) from P0 rats

P2X3 receptor = target: T2, P2X3 receptor (Rattus norvegicus, UniProt P49654); assay: Calcium imaging of α-β-meATP-evoked responses in DRG neurons; type: cell-based
T2 construct: endogenous in cells; host or cells: acutely dissociated primary sensory neurons (trigeminal ganglia per methods; called DRG neurons in results) from P0 rats
T2 sequence (P49654 1-397): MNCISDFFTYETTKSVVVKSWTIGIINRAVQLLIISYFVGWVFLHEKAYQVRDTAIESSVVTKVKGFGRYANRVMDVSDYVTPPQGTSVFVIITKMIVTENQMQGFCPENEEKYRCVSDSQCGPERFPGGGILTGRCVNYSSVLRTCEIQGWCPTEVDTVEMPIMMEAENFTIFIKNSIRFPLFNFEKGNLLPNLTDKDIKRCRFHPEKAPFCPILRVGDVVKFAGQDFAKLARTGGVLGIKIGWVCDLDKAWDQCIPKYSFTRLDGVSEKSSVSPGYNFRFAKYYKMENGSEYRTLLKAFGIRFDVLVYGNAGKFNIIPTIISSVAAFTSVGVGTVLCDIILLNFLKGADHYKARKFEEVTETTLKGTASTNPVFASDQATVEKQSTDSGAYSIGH

GABA(A) channels = assay: Cell-attached single GABA(A) channel recordings (GABA driving force); type: cell-based, rat; conditions: immature trigeminal neurons; oxytocin 1 μM (control 38.7±2.4 mV)
Protocol: Single GABA channel recordings were performed from the trigeminal sensory neurons prepared as described above. Cell attached patch-clamp recordings were performed using Axopatch 200A (Axon Instruments, Union City, Calif.) and EPC-9 (HEKA Elektronik Dr. Schulze GmbH, Lambrecht/Pfalz, Germany) amplifiers. Patch electrodes were made from borosilicate glass capillaries (GC150F-15, Clark Electromedical Instruments). For recordings of single GABA(A) channels, patch pipette solution contained (in mM): NaCl 120, TEA-Cl 20, KCl 5, 4-aminopyridine 5, CaCl2 0.1, MgCl2 10, glucose 10, Hepes-NaOH 10 buffered to pH 7.2-7.3 and GABA (1-5 μM) was added at the day of experiment from 1 mM frozen stock solution. Driving force for GABA(A) receptor mediated currents was determined from the current-voltage relationships of the currents through single GABA(A) channels single as described earlier (Tyzio et al., 2006) and corrected for an error of 2 mV (Tyzio et al., 2008).
DFGABA was deduced from reversal potential of the currents via GABA(A) channels (Serafini et al., 1995; Tyzio et al., 2006; Tyzio et al., 2008). In control conditions, GABA exerted strongly depolarizing action on the immature trigeminal neurons with DFGABA of 38.7±2.4 mV (n=6). In the presence of oxytocin (1 μM), DFGABA reduced to 17.7±6.7 mV (n=5; P<0.05).

[3] = newborn rats, drug alone (oxytocin 1 μM; atosiban 10 μM)
[4] = recordings between 12 and 24 hours after birth, atosiban 10 μM, oxytocin

T1 sequence (O35433 whole entry): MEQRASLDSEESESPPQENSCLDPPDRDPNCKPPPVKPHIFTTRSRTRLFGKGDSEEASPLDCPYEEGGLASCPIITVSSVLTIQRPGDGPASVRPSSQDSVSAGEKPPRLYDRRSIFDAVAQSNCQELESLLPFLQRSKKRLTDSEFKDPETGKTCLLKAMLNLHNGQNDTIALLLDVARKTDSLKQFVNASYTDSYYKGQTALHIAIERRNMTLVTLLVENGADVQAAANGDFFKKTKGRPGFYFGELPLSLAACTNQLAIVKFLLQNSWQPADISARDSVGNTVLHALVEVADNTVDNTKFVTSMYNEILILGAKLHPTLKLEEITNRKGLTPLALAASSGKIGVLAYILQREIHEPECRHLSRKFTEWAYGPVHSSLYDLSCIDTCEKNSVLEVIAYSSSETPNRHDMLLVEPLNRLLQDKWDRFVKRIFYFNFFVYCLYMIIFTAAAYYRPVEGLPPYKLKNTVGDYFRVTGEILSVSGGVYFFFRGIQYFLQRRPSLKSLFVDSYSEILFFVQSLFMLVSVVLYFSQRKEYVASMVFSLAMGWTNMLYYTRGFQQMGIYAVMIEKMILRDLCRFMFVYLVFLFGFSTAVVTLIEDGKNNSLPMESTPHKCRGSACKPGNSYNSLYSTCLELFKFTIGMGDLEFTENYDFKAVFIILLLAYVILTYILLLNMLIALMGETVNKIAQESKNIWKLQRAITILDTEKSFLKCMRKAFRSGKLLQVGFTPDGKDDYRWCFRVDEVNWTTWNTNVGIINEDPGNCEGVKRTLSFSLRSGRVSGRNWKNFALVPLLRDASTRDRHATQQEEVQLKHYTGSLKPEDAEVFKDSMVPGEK

Row | SMILES | change in tail withdrawal delay (newborn rats) | change in tail-flick delays (newborn rats) | peak of DR-DRPs, % of control [1, 3] [%] | peak of DR-DRPs, % of control [1, 4] [%] | reversal of the effect of oxytocin receptor blockers on tail-flick (newborn rats) | vocalization response (scalar acusticogram integral) (neonatal rats; P1-2 rats, drug alone) [%] | GABA-evoked intracellular calcium increases [2] | also measured
1 | CCN(Cc1cccnc1)C(=O)c1ccc(Cl)c([C@]2(C)C(=O)N(Cc3ccc(OC)cc3OC)c3ccc(Cl)cc32)c1 [SSR126768A] | nearly three-fold acceleration in the tail withdrawal | did not significantly modify the tail-flick delays |  |  |  |  |  | 
2 | CCOc1ccc(C[C@H]2NC(=O)CCSSC[C@@H](C(=O)N3CCC[C@H]3C(=O)N[C@@H](CCCN)C(=O)NCC(N)=O)NC(=O)[C@H](CC(N)=O)NC(=O)[C@H]([C@@H](C)O)NC(=O)[C@H]([C@@H](C)CC)NC2=O)cc1 [atosiban] ([Mpa][dY](Et)ITNCP[Orn]G-NH2; disulfide 1-6) | nearly three-fold acceleration in the tail withdrawal | did not significantly modify the tail-flick delays | 112.7±9.1 | 90.0±9.8 |  |  |  | vocalization response (scalar acusticogram integral) (neonatal rats; P0 rats, atosiban 2 μg/kg): 155±28%; vocalization response, from control level (neonatal rats; P1-2 rats, atosiban on top of exogenous oxytocin): 84±38%; peak of DR-DRPs, % of control ([1]; atosiban 10 μM added to oxytocin 1 μM): 106.0±20.8%
3 | CCCCNc1cc(C(=O)O)cc(S(N)(=O)=O)c1Oc1ccccc1 [bumetanide] |  |  |  |  | reversed the effect of oxytocin receptor blockers | 72±16 | suppressed the GABA receptor mediated increases in intracellular calcium | tail-flick responses (newborn rats; bumetanide 10 μM/kg, both age groups (P0 and P2)): strongly delayed the tail-flick responses; peak of DR-DRPs, % with respect to control values ([1]; bumetamide 20 μM added to atosiban 10 μM): 66.6±13.8%
4 | COc1cc(CNC(=O)CCCC/C=C/C(C)C)ccc1O [capsaicin] |  |  |  |  |  |  |  | Ca2+ response evoked by agonist (TRPV1 receptors; 200 nM, 2 s pulses at 10 min intervals): evoked transient, and quite stable Ca2+ increases
5 | CC[C@H](C)[C@@H]1NC(=O)[C@H](Cc2ccc(O)cc2)NC(=O)[C@@H](N)CSSC[C@@H](C(=O)N2CCC[C@H]2C(=O)N[C@@H](CC(C)C)C(=O)NCC(N)=O)NC(=O)[C@H](CC(N)=O)NC(=O)[C@H](CCC(N)=O)NC1=O [oxytocin] |  |  | 93.6±5.6 | 77.8±21.6 | partially reverse the effects of the competitive oxytocin receptor blockers | 41±12 | significantly reduced GABA-evoked calcium increases | analgesic effect in tail-flick test (newborn rats; exogenous oxytocin 1 μg/kg systemic, newborn and P2 rats): dramatic analgesic effect; duration of slow transient responses induced by the drug ([2]; not shown): 60 to 80 s; amplitude of α-β-meATP (10 μM) evoked Ca2+ responses (P2X3 receptor; 1 μM-OT for 20-30 min): did not significantly change the amplitude; amplitude of capsaicin (200 nM) evoked Ca2+ responses (TRPV1 receptors; 1 μM-OT for 20-30 min): did not significantly change the amplitude; GABA driving force (DFGABA) (GABA(A) channels): 17.7±6.7 mV
6 | Nc1ncnc2c1ncn2[C@@H]1O[C@H](COP(=O)(O)CP(=O)(O)OP(=O)(O)O)[C@@H](O)[C@H]1O [α-β-methylenATP] |  |  |  |  |  |  |  | Ca2+ response evoked by agonist (P2X3 receptor; 10 μM, 2 s pulses at 10 min intervals): evoked transient, and quite stable Ca2+ increases
